Experimental data as given in patent US12421276B2 (priority 2016, dated 2025).
“And” between values parts separate entries of the source, which are not always exact repeats. Identical values can stand only once. Like-named read-outs stand apart in the source and are kept apart here.

Experiments:
[1] = Metabolic stability in simulated intestinal fluid (SIF), pH 6.8, with or without pancreatin; assay type: in vitro ADME; details: 5 μM, 37° C.
In short: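 Compounds at 5 μM incubated at 37 °C in freshly made SIF pH 6.8 (NaOH/NaH2PO4/NaCl), with or without 1% pancreatin. Remaining parent measured by LC/MS/MS against 0-min control; t½ derived from elimination rate constant (−slope) of semi-log % remaining vs time.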

[2] = Metabolic stability in simulated gastric fluid (SGF), pH 1.2, with or without pepsin; assay type: in vitro ADME; details: 5 μM, 37° C.
In short: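 Compound at 5 μM incubated at 37 °C in SGF (34.2 mM NaCl, pH 1.2) without or with 0.32% pepsin; acetonitrile/formic acid quench at time points, LC/MS/MS. Disappearance relative to 0-min; t½ from elimination rate constant of semi-log % remaining vs time.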

[3] = assay type: in vivo, rat
In short: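 Male SD rats (n=4/group) dosed PO at 13.2 or 14.2 mg/kg (10 mL/kg) and housed in metabolic cages with daily urine collection. EDTA blood sampled predose to 24 h post-dose, centrifuged at 4 °C to plasma, analysed by LC-MS.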

[4] = tested on: Caco-2 cells; test: Caco-2 permeability study with or without P-gp inhibitor GF120918; details: for Abs. Quotient: (Papp A-B with inhibitor − without inhibitor)/Papp A-B with inhibitor; for Caco-2 Cells Permeability Recovery Rate: 1 hr, pH 7.4
[5] = Rat, PO, 10 mg/kg equiv., n = 4, analyte: Parent (BASE STRUCTURE)
[6] = Rat, PO, 10 mg/kg equiv., n = 4, analyte: Prodrug
[7] = rat, dosed as prodrug, 10 mg/kg equivalent of Base Structure, analyte Parent (Base Structure), Average
[8] = rat, dosed as prodrug, 10 mg/kg equivalent of Base Structure, analyte Parent (Base Structure), Combined (average ± std. dev.)
[9] = rat, dosed as prodrug, 10 mg/kg equivalent of Base Structure, analyte Parent (Base Structure), individual animals
[10] = rat, dosed as prodrug, 10 mg/kg equivalent of Base Structure, analyte Parent (Base Structure), individual animals, 10 mg/kg
[11] = rat, dosed as prodrug, 10 mg/kg equivalent of Base Structure, analyte Prodrug, Average
[12] = rat, dosed as prodrug, 10 mg/kg equivalent of Base Structure, analyte Prodrug, Combined (average ± std. dev.)
[13] = rat, dosed as prodrug, 10 mg/kg equivalent of Base Structure, analyte Prodrug, individual animals
[14] = +GF120918 (10 μM), 10 μM compound
[15] = rat, dosed as prodrug, 10 mg/kg equivalent of Base Structure, analyte Prodrug, individual animals, 10 mg/kg

CCCCCC(=O)NC(Cc1ccc(OC(=O)N2CCN(C)CC2)cc1)C(=O)NC(C(=O)NCCCCCC(N)=O)C(C)CC (stereo not shown) [Compound A20]
SIF Stability (pH 6.8) Half-Life (min) ([1]; +Pancreatin (1%)): 86.6 min
SIF Stability (pH 6.8) 0 min ([1]; +Pancreatin (1%)): 100%
SIF Stability (pH 6.8) 60 min ([1]; +Pancreatin (1%)): 62%
SIF Stability (pH 6.8) 120 min ([1]; +Pancreatin (1%)): 54%
SIF Stability (pH 6.8) 240 min ([1]; +Pancreatin (1%)): 61%
SIF Stability (pH 6.8) Half-Life (min) ([1]; −Pancreatin): 95.4 min
SIF Stability (pH 6.8) 0 min ([1]; −Pancreatin): 100%
SIF Stability (pH 6.8) 60 min ([1]; −Pancreatin): 65%
SIF Stability (pH 6.8) 120 min ([1]; −Pancreatin): 57%
SIF Stability (pH 6.8) 240 min ([1]; −Pancreatin): 51%
SGF Stability (pH 1.2) Half-Life (min) ([2]; +Pepsin (0.32%)): 84.5 min
SGF Stability (pH 1.2) 0 min ([2]; +Pepsin (0.32%)): 100%
SGF Stability (pH 1.2) 60 min ([2]; +Pepsin (0.32%)): 57%
SGF Stability (pH 1.2) 120 min ([2]; +Pepsin (0.32%)): 37%
SGF Stability (pH 1.2) 240 min ([2]; +Pepsin (0.32%)): 26%
SGF Stability (pH 1.2) Half-Life (min) ([2]; −Pepsin): 116.5 min
SGF Stability (pH 1.2) 0 min ([2]; −Pepsin): 100%
SGF Stability (pH 1.2) 60 min ([2]; −Pepsin): 70%
SGF Stability (pH 1.2) 120 min ([2]; −Pepsin): 57%
SGF Stability (pH 1.2) 240 min ([2]; −Pepsin): 60%
AUC0-24 (ng · h/mL) [3, 5]: 0.8 ± 1^ ng · h/mL
AUC0-inf [3, 5]: 1.61 ng·h/mL
Cmax [3, 5]: 1.7 ± 1.3 ng/mL
Tmax (h) [3, 5]: 0.3 ± 0^ h
half-life [3, 5]: 0.17 h
Tmax [3, 6]: 0 h
AUC 0-inf_obs [3, 7]: 1.611 ng·h/mL
AUC 0-t [3, 7]: 0.8309 ng·h/mL
AUMC 0-inf_obs [3, 7]: 0.6699 ng/ml * h^2
Cl/F_obs [3, 7]: 6.207 (mg/kg)/(ng/ml)/h
Cmax [3, 7]: 1.7125 ng/mL
Lambda_z [3, 7]: 4.022 h⁻¹
MRT 0-inf_obs [3, 7]: 0.4158 h
Tlag [3, 7]: 0 h
Tmax [3, 7]: 0.25 h
Vz/F_obs [3, 7]: 1.543 (mg/kg)/(ng/ml)
t1/2 [3, 7]: 0.1723 h
AUC 0-inf_obs [3, 8]: 1.611 ng·h/mL
AUC 0-t [3, 8]: 0.8 ± 1 ng·h/mL
AUMC 0-inf_obs [3, 8]: 0.6699 ng/ml * h^2
Cl/F_obs [3, 8]: 6.207 (mg/kg)/(ng/ml)/h
Cmax [3, 8]: 1.7 ± 1.3 ng/mL
Lambda_z [3, 8]: 4.022 h⁻¹
MRT 0-inf_obs [3, 8]: 0.4158 h
Tlag [3, 8]: 0 ± 0 h
Tmax [3, 8]: 0.3 ± 0 h
Vz/F_obs [3, 8]: 1.543 (mg/kg)/(ng/ml)
t1/2 [3, 8]: 0.1723 h
AUC 0-inf_obs [3, 9]: 1.611 ng·h/mL
AUMC 0-inf_obs [3, 9]: 0.6699 ng/ml * h^2
Cl/F_obs [3, 9]: 6.207 (mg/kg)/(ng/ml)/h
Lambda_z [3, 9]: 4.022 h⁻¹
MRT 0-inf_obs [3, 9]: 0.4158 h
Tlag [3, 9]: 0 h
Tmax [3, 9]: 0.25 h
Vz/F_obs [3, 9]: 1.543 (mg/kg)/(ng/ml)
t1/2 [3, 9]: 0.1723 h
AUC 0-t [3, 10]: 0.08927 ng·h/mL and 1.5726 ng·h/mL
Cmax [3, 10]: 0.765 ng/mL and 2.66 ng/mL
AUMC 0-inf_obs [3, 11]: 0 ng/ml * h^2
Cl/F_obs [3, 11]: 0 (mg/kg)/(ng/ml)/h
Lambda_z [3, 11]: 0 h⁻¹
Tlag [3, 11]: 0 h
Tmax [3, 11]: 0 h
Vz/F_obs [3, 11]: 0 (mg/kg)/(ng/ml)
AUMC 0-inf_obs [3, 12]: 0 ng/ml * h^2
Cl/F_obs [3, 12]: 0 (mg/kg)/(ng/ml)/h
Lambda_z [3, 12]: 0 h⁻¹
Tlag [3, 12]: 0 h
Tmax [3, 12]: 0 h
Vz/F_obs [3, 12]: 0 (mg/kg)/(ng/ml)
AUMC 0-inf_obs [3, 13]: 0 ng/ml * h^2
Cl/F_obs [3, 13]: 0 (mg/kg)/(ng/ml)/h
Lambda_z [3, 13]: 0 h⁻¹
Tlag [3, 13]: 0 h
Tmax [3, 13]: 0 h
Vz/F_obs [3, 13]: 0 (mg/kg)/(ng/ml)
Abs. Quotient [4]: 0.88
Caco-2 Cells Permeability Recovery Rate [4, 14]: 90%
Caco-2 Cells Permeability Recovery Rate ([4]; −GF120918, 10 μM compound): 71%

CCCCCC(=O)NC(Cc1ccc(OC(=O)NCCN(C)C)cc1)C(=O)NC(C(=O)NCCCCCC(N)=O)C(C)CC (stereo not shown) [Compound A21]
SIF Stability (pH 6.8) Half-Life (min) ([1]; +Pancreatin (1%)): 3006.4 min
SIF Stability (pH 6.8) 0 min ([1]; +Pancreatin (1%)): 100%
SIF Stability (pH 6.8) 60 min ([1]; +Pancreatin (1%)): 95%
SIF Stability (pH 6.8) 120 min ([1]; +Pancreatin (1%)): 97%
SIF Stability (pH 6.8) 240 min ([1]; +Pancreatin (1%)): 93%
SGF Stability (pH 1.2) Half-Life (min) ([2]; +Pepsin (0.32%)): 265.1 min
SGF Stability (pH 1.2) 0 min ([2]; +Pepsin (0.32%)): 100%
SGF Stability (pH 1.2) 60 min ([2]; +Pepsin (0.32%)): 87%
SGF Stability (pH 1.2) 120 min ([2]; +Pepsin (0.32%)): 74%
SGF Stability (pH 1.2) 240 min ([2]; +Pepsin (0.32%)): 54%
AUC0-24 [3, 5]: 7.4 ± 0.9 ng·h/mL
AUC0-inf [3, 5]: 47.8 ± 1 ng·h/mL
Cmax [3, 5]: 0.6 ± 0.1 ng/mL
Tmax [3, 5]: 0.9 ± 0.8 h
half-life [3, 5]: 81.7 ± 5.7 h
AUC0-24 [3, 6]: 2.8 ± 1.9 ng·h/mL
AUC0-inf [3, 6]: 6.46 ng·h/mL
Cmax [3, 6]: 1.6 ± 0.5 ng/mL
Tmax [3, 6]: 0.8 ± 0.4 h
half-life [3, 6]: 1.32 h
AUC 0-inf_obs [3, 7]: 47.78 ng·h/mL
AUC 0-t [3, 7]: 7.45 ng·h/mL
AUMC 0-inf_obs [3, 7]: 5777.4305 ng/ml * h^2
Cl/F_obs [3, 7]: 0.2094 (mg/kg)/(ng/ml)/h
Cmax [3, 7]: 0.62 ng/mL
Lambda_z [3, 7]: 0.008507 h⁻¹
MRT 0-inf_obs [3, 7]: 120.8 h
Tlag [3, 7]: 0 h
Tmax [3, 7]: 0.875 h
Vz/F_obs [3, 7]: 24.65 (mg/kg)/(ng/ml)
t1/2 [3, 7]: 81.6756 h
AUC 0-inf_obs [3, 8]: 47.8 ± 1 ng·h/mL
AUC 0-t [3, 8]: 7.4 ± 0.9 ng·h/mL
AUMC 0-inf_obs [3, 8]: 5777.4 ± 551.6 ng/ml * h^2
Cl/F_obs [3, 8]: 0.2 ± 0 (mg/kg)/(ng/ml)/h
Cmax [3, 8]: 0.6 ± 0.1 ng/mL
Lambda_z [3, 8]: 0 ± 0 h⁻¹
MRT 0-inf_obs [3, 8]: 120.8 ± 9.1 h
Tlag [3, 8]: 0 ± 0 h
Tmax [3, 8]: 0.9 ± 0.8 h
Vz/F_obs [3, 8]: 24.7 ± 1.2 (mg/kg)/(ng/ml)
t1/2 [3, 8]: 81.7 ± 5.7 h
Tlag [3, 9]: 0 h
AUC 0-inf_obs [3, 10]: 48.45 ng·h/mL and 47.1 ng·h/mL
AUC 0-t [3, 10]: 7.285 ng·h/mL and 8.222 ng·h/mL and 6.27 ng·h/mL and 8.022 ng·h/mL
AUMC 0-inf_obs [3, 10]: 6167.4557 ng/ml * h^2 and 5387.4053 ng/ml * h^2
Cl/F_obs [3, 10]: 0.2064 (mg/kg)/(ng/ml)/h and 0.2123 (mg/kg)/(ng/ml)/h
Cmax [3, 10]: 0.744 ng/mL and 0.604 ng/mL and 0.555 ng/mL and 0.577 ng/mL
Lambda_z [3, 10]: 0.00809 h⁻¹ and 0.008925 h⁻¹
MRT 0-inf_obs [3, 10]: 127.3 h and 114.4 h
Tmax [3, 10]: 0.25 h (2×) and 1 h and 2 h
Vz/F_obs [3, 10]: 25.51 (mg/kg)/(ng/ml) and 23.79 (mg/kg)/(ng/ml)
t1/2 [3, 10]: 85.68 h and 77.67 h
AUC 0-inf_obs [3, 11]: 6.459 ng·h/mL
AUC 0-t [3, 11]: 2.846 ng·h/mL
AUMC 0-inf_obs [3, 11]: 13.69 ng/ml * h^2
Cl/F_obs [3, 11]: 1.548 (mg/kg)/(ng/ml)/h
Cmax [3, 11]: 1.615 ng/mL
Lambda_z [3, 11]: 0.5257 h⁻¹
MRT 0-inf_obs [3, 11]: 2.119 h
Tlag [3, 11]: 0 h
Tmax [3, 11]: 0.8125 h
Vz/F_obs [3, 11]: 2.945 (mg/kg)/(ng/ml)
t1/2 [3, 11]: 1.319 h
AUC 0-inf_obs [3, 12]: 6.459 ng·h/mL
AUC 0-t [3, 12]: 2.8 ± 1.9 ng·h/mL
AUMC 0-inf_obs [3, 12]: 13.69 ng/ml * h^2
Cl/F_obs [3, 12]: 1.548 (mg/kg)/(ng/ml)/h
Cmax [3, 12]: 1.6 ± 0.5 ng/mL
Lambda_z [3, 12]: 0.5257 h⁻¹
MRT 0-inf_obs [3, 12]: 2.119 h
Tlag [3, 12]: 0 ± 0 h
Tmax [3, 12]: 0.8 ± 0.4 h
Vz/F_obs [3, 12]: 2.945 (mg/kg)/(ng/ml)
t1/2 [3, 12]: 1.319 h
AUC 0-inf_obs [3, 13]: 6.459 ng·h/mL
AUMC 0-inf_obs [3, 13]: 13.69 ng/ml * h^2
Cl/F_obs [3, 13]: 1.548 (mg/kg)/(ng/ml)/h
Lambda_z [3, 13]: 0.5257 h⁻¹
MRT 0-inf_obs [3, 13]: 2.119 h
Tlag [3, 13]: 0 h
Vz/F_obs [3, 13]: 2.945 (mg/kg)/(ng/ml)
t1/2 [3, 13]: 1.319 h
AUC 0-t [3, 15]: 5.619 ng·h/mL and 2.381 ng·h/mL and 1.498 ng·h/mL and 1.885 ng·h/mL
Cmax [3, 15]: 2.18 ng/mL and 1.89 ng/mL and 1.01 ng/mL and 1.38 ng/mL
Tmax [3, 15]: 0.25 h and 1 h (3×)
Abs. Quotient [4]: 0.50
Caco-2 Cells Permeability Recovery Rate [4, 14]: 84%
Caco-2 Cells Permeability Recovery Rate ([4]; −GF120918, 10 μM compound): 84%
